Measured values published in the METLIN SMRT retention time set (Domingo-Almenara et al. 2019).

Assay: gradient 5% acetonitrile 3 min, to 50% in 2 min, to 85% in 15 min, held 3 min, 100 µL/min
Settings: column: Zorbax Extend-C18 2.1 x 50 mm; eluents: water / acetonitrile, 0.1% formic acid
In short: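 In both positive and negative ionization mode, a quadrupole time-of-flight mass spectrometer coupled to HPLC analyzed pure standards run in mixtures of ~100 molecules. The Zorbax Extend-C18 column (2.1 × 50 mm, 1.8 μm) was operated at 100 μL/min with water and acetonitrile, each containing 0.1% formic acid. The dead volume was 40 μL and the dwell volume 900 μL. Retention time came from adduct peaks that were computationally picked and individually inspected by hand.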

SMILES | RP-LC retention time [s]
CN1C(=O)C2CCCCN2c2ccc(C(=O)NCCN3CCOCC3)cc21 (stereo not given) | 582
CCC(C)NC(=O)NCCC1CCN(S(=O)(=O)c2ccc(F)cc2)CC1 (stereo not given) | 814
CCOC(=O)N1CCN(C2CC(=O)N(CCc3ccc(OC)c(OC)c3)C2=O)CC1 (stereo not given) | 659
CCC(=O)NCc1nc2c(n1CC)CN(C(=O)c1ccc(Cl)cc1)CC2 | 529
Cc1cc(C)c2c(N3CCOCC3)nc(C(=O)NCCC(C)C)nc2n1 | 648
CCOCCCNC(=O)c1cc2sc(C)cc2n1C | 861
CC(C)Cc1noc(C2(F)CCN(S(=O)(=O)c3ccc(Cl)c(Cl)c3)CC2)n1 | 1300
CC(=O)N1CCc2sc(S(=O)(=O)N3CCN(c4cccc(Cl)c4)CC3)cc2C1 | 957
CCOC(=O)c1sc(NC(=O)C2CCCN(S(C)(=O)=O)C2)nc1-c1ccccc1 (stereo not given) | 863
O=C1N(c2cccc(F)c2)C(c2ccccc2)C12CCNCC2 (stereo not given) | 669
Cc1nc(CC(=O)Nc2ccc(F)cc2Cl)sc1C(=O)NC1CC1 | 740
Cc1cc(C)cc(-c2nnc(Cc3nc(-c4ccc(Cl)cc4)no3)o2)c1 | 1230
O=C(Cn1c(=O)oc2ccccc21)NCCc1csc2nc(-c3ccccc3F)nn12 | 746
CCCNC(=O)N1CCCN(S(C)(=O)=O)CC1 | 582
O=C(Oc1cccc([N+](=O)[O-])c1)N1CCCCC1 | 896
CCCc1cc(N2CCN(C(=O)C(C)Oc3ccccc3)CC2)nc2nnc(C)n12 (stereo not given) | 656
Cn1nc(C(=O)N2CCOCC2)c2c1CCN(C(=O)Nc1ccc(F)c(Cl)c1)C2 | 1070
CCCCN(C)C(=O)Cn1c(=O)c(S(=O)(=O)c2ccccc2)cc2ccccc21 | 893
Cc1ccc(Sc2cncc3sc(C(N)=O)cc23)cc1 | 836
CCc1ccc(N2CC(c3noc(-c4cccs4)n3)CC2=O)cc1 (stereo not given) | 1010

SMILES | RP-LC retention time [s]
O=C(c1ccc(Cl)s1)N1CCN(c2ncnc3c2CCC3)CC1 | 638
COC(=O)C1=CN(C2CC2)c2cc(N3CCC(C)CC3)c(F)cc2S1(=O)=O | 1010
CCOC(=O)CCC(=O)N1CC(c2nc(C)no2)C1 | 603
CC(C(=O)NCCc1ccco1)n1c(=O)c(C(F)(F)F)nc2ccccc21 (stereo not given) | 698
COc1ccc(Cl)cc1NC(=O)N(C)CC1CCOCC1 | 816
Cn1nccc1-c1cccc(-c2noc(-c3cccnc3)n2)c1 | 876
CCN1C(=O)c2cccnc2Sc2cc(NC(=O)c3cccc(C(F)(F)F)c3)ccc21 | 957
CCn1nnc2c(N3CCN(S(=O)(=O)c4cccc(Cl)c4)CC3)ncnc21 | 880
CNC(=O)c1noc([C@@H]2CC(F)(F)CN2C(=O)c2cccn2C)n1 | 712
COc1ccccc1-c1noc(C2CCCN2C(=O)c2cccs2)n1 (stereo not given) | 849
Cc1cc(C)n(-c2cc(NCCNC(=O)c3ccc(Br)o3)ncn2)n1 | 718
CCOC(=O)c1nc(Nc2ccc(C)cc2Cl)c2ccccc2n1 | 929
CCn1c(C)c(CCC(=O)NC(C)C)c(=O)n2nc(-c3ccccc3)nc12 | 706
O=C(CCCn1c(=O)c2cccn2c2ccccc21)NCc1ccccn1 | 621
c1nc(NC2CCCCCC2)c2[nH]cnc2n1 | 564
CC1CCN(C(=O)c2cc(S(=O)(=O)N3CCC(C(=O)N4CCC(C)CC4)CC3)cn2C)CC1 | 883
Cc1cc(C)n(-c2ccnc(N3CCC(C(=O)N4CCC(C)CC4)CC3)n2)n1 | 920
CCCCN1C(=O)CC(C(=O)OCC)=C1C | 892
CN1CCN(C(=O)c2csc(N3CCN(c4ccc(Cl)cc4)CC3)n2)CC1 | 686
O=C(NC1CC1)[C@@H]1C[C@H](Oc2ccccc2)CN1C(=O)C1CCCC1 | 750

SMILES | RP-LC retention time [s]
COc1ccc2c(c1)C1(CCN(C(=O)C(C)(C)C)C1)C(=O)N2 (stereo not given) | 703
COc1ccc2c(c1)CCc1c-2n[nH]c1C(=O)O | 674
COc1cc(NC(=O)N2CCN(c3cc(C)nc(N4CCCCC4)n3)CC2)cc(OC)c1OC | 669
COc1cc(NC(C)=O)c2ncccc2c1NC(C)=O | 631
O=c1n(CCc2ccccc2)nc2c(S(=O)(=O)N3CCN(c4ccc(F)cc4)CC3)cccn12 | 989
CCN1CCC(n2cc(CNc3cc(Cl)c4ncc(C#N)c(Nc5ccc(F)c(Cl)c5)c4c3)nn2)CC1 | 727
CCOC(=O)N1CCN(S(=O)(=O)c2cc(N3C(=O)CCS3(=O)=O)ccc2C)CC1 | 729
CC(=O)c1cccc(NC(=O)c2c(F)cccc2F)c1 | 708
O=C(Nc1nccs1)c1cccc(NS(=O)(=O)c2ccc(F)cc2)c1 | 751
CC(C)n1cc(C2=CCN(S(=O)(=O)c3cccc(C#N)c3)CC2)c2cccnc21 | 995
Nc1ccc(S(=O)(=O)N2CCCCC2c2cccnc2)cc1 (stereo not given) | 555
CCCCN1C(=O)C(NC(=O)c2ccccc2OC)(C(F)(F)F)C2=C1CC(C)(C)CC2=O (stereo not given) | 1080
COCC(=O)Nc1nc(-c2ccc3c(c2)N(C)C(=O)CO3)c(C)s1 | 764
O=C(NCc1ccc2c(c1)OCO2)C1CCN(C(=O)c2ncn3c2COC(c2ccccc2)C3)CC1 (stereo not given) | 752
Cc1cc(C)c(S(=O)(=O)N2CCC(n3cnc4c(C)cccc4c3=O)CC2)cc1C | 1120
CCOC(=O)c1noc2nc(C)nc(NCc3ccc(Cl)cc3)c12 | 1160
Cc1cc(C(=O)NCc2ccsc2)no1 | 700
Cc1nc(-c2cn(C(C)C)c3ncccc23)sc1C(=O)N1CCN(C)CC1 | 611
CCN1C(=O)COc2ccc(-c3nc(NC(=O)C(C)(C)C)sc3C)cc21 | 643

The remaining lines, values ahead:

RP-LC retention time [s] | SMILES
717 | CCOc1ccc(CNC(=O)CCc2c(-c3ccc(Br)cc3)nc3ccccn23)cc1
745 | COc1cccc(NC(=O)N2CCC3(CC2)NC(=O)c2ccccc2O3)c1
1280 | Cc1ccc(-c2noc(C3CCCN3C(=O)c3ccc(C(C)(C)C)cc3)n2)cc1 (stereo not given)
651 | COc1ccc(C2(c3nc(-c4ccc5oc(C)nc5c4)no3)CC2)cc1
1100 | Cc1cccc(NC(=O)N2CCN(c3nc4ccccc4nc3C(F)(F)F)CC2)c1C
952 | COc1ccc2c(c1)c(N1CCCC1=O)c(C(=O)Nc1ccc(F)cc1)n2C
1350 | O=S(=O)(c1cccc(-c2nc(-c3ccccc3)no2)c1)N1CCCc2ccccc21
1180 | COc1ccc(-c2cc(C(=O)Nc3ccc(F)c(F)c3)sn2)cc1
704 | CCn1cnc(S(=O)(=O)N2CCC(C(=O)Nc3ccc(OC)c(OC)c3)CC2)c1
1060 | CCOc1ccc(C(=O)N2CCc3cc(-c4csc(C)n4)ccc32)cc1
902 | CSc1cccc(NC(=O)CN2C(=O)CCn3nc(-c4cn(C)c5ccccc45)cc32)c1
978 | O=C(c1ccccc1)N1CCCC1c1nc(-c2ccccc2Cl)no1 (stereo not given)
754 | Cc1ccc(C)c(NC(=O)COc2nc(C)nc3ccccc23)c1
665 | COc1ccc(OC)c(NC(=O)CCc2c(-c3ccc(F)cc3)nc3ccccn23)c1
591 | Cc1ccn2cc(C(=O)NCc3ccc(N4CCOCC4)cc3)nc2c1
820 | CCOC(=O)C1CCCN(C(=O)Cc2cc(-c3ccc(F)cc3)on2)C1 (stereo not given)

RP-LC retention time [s] | SMILES
676 | Clc1cccc(-c2nc(-c3ccc4c(c3)ncn4CCN3CCOCC3)no2)c1
734 | O=C(COc1ccc(-c2nnc3n2CCCC3)cc1)Nc1ccc(Br)cc1
1120 | COc1cccc(S(=O)(=O)N2CCC(c3noc(-c4ccccc4)n3)CC2)c1
819 | CCC(=O)N1CCc2c(C(=O)N3CCN(c4cccc(OC)c4)CC3)cccc21
837 | CCOC(=O)c1cccc(Nc2c(-c3ccc(N(C)C)cc3)nc3cnccn23)c1
869 | O=C(Cn1nc2c3sc(N4CCCCC4)nc3ncn2c1=O)Nc1ccc(F)c(Cl)c1
675 | Cc1ccc(-n2nc3c(N4CCN(C(=O)NC(C)C)CC4)nnc(C)c3c2C)cc1
767 | CCOc1ccc2nc(C(=O)Nc3ccc(N4CCOCC4)cc3)cn2n1
957 | COc1ccc(C(=O)N2CCCC2c2nc(-c3ccc(OC)cc3)no2)cc1 (stereo not given)
666 | CCn1c(=O)sc2cc(S(=O)(=O)N3CCC(C(=O)Nc4ncccc4C)CC3)ccc21
742 | CCC(=O)N1CCCN(C2=NS(=O)(=O)C(c3ccc(C)cc3)=C2C)CC1
689 | Cc1cccc(NC(=O)N2CCC(c3nc(C(=O)N(C)C)c(C)o3)CC2)c1
611 | Nc1nc(N2CCOCC2)ncc1C(=O)Nc1ccccc1
745 | Cn1cccc1C(=O)N1CCCCC1c1nncn1Cc1ccccc1 (stereo not given)
964 | COc1ccc(-n2c(=O)c3sccc3n(Cc3nc(-c4ccc(F)cc4)no3)c2=O)cc1
